Key:
[1] = molecular target: [3H]Noradenaline reuptake; experiment: in vitro [3H]noradrenaline reuptake inhibition in rat brain tissue; assay type: biochemical; settings: means of ≧3 separate determinations
[3H]Dopamine reuptake = in vitro [3H]dopamine reuptake inhibition in rat brain tissue; assay type: biochemical; settings: means of ≧3 separate determinations

CC(NC(C)(C)C)C(=O)c1cccc(Cl)c1 (stereo not shown) [Bupropion]
Ki [1]: 2590 nM
Ki ([3H]Dopamine reuptake): 409 nM

COc1ccc(C(CN(C)C)C2(O)CCCCC2)cc1 (stereo not shown) [Venlafaxine]
Ki [1]: 196 nM
Ki ([3H]Dopamine reuptake): 2590 nM

— patent publication US6403650B1, “Treatment of pulmonary hypertension” (Knoll Pharmaceutical Company, priority 1999, dated 2002)
